{"source": "patent US20250186423A1", "about": "“METHODS OF TREATING CANCER AND OTHER CONDITIONS WITH A MU OPIOID RECEPTOR ANTAGONIST” (priority 2022, published 2025)", "key": {"[1]": {"system": "chicken CD3, MMD and CD244", "experiment": "Immune cell infiltration into CAM breast cancer tumors (RT-qPCR)", "assay_type": "in vivo", "details": "axelopran used in the presence of bevacizumab and pembrolizumab", "method": "Infiltration of host immune cells into the tumor environment is required for host reduction of tumor progression. Among the tumors collected at E18, after tumor weighing, 10 tumors per group (n=10) were used for RNA extraction, in 6 groups (Gr. 1, 2, 3, 4, 7, and 8). After that, extracted RNA was analyzed by RT-qPCR with specific primers for chicken CD3, MMD and CD244 sequences. For all points done in qPCR, expression of human GAPDH was also analyzed, as reference gene expression, and used to normalize immune biomarker expression between samples. Calculation of Cq for each sample, mean Cq and relative amounts of immune cells for each group were directly managed by the Bio- Rad CFX Maestro software (see FIG. 11).\nThe infiltration of chicken CD3^+, CD244^+, and MMD^+ immune cells into breast cancer tumors grown on the upper CAM in the presence of axelopran, pembrolizumab, bevacizumab and combinations are shown in FIG. 11."}, "M-001 melanoma cells": {"system": "M-001 melanoma cells", "experiment": "Melanoma tumor progression in Zebra fish larvae", "assay_type": "in vivo, zebrafish", "details": "for Melanoma tumor progression index (tumor size × metastasis), Mean: 72 hours of growth", "method": "Zebra fish larvae (FIG. 3A) allow direct visualization of injected tumor cell growth and metastasis (collectively tumor progression) using fluorescently label tumor cells. At this developmental stage both the zebra fish immune system and gut microbiome are immature or lacking. Co-injection of exogenous tumor infiltrating lymphocytes (ex-TILS) allows the separate study of immune surveillance in the absence of a microbiome.\nThe toxicity screening period covered the first 72 hours of development. The efficacy evaluation of Axelopran was made using M-001 melanoma cells and matching TILs. Two-day old zebrafish embryos were subcutaneously injected into the perivitelline space with approximately 700 M-001 cells labelled with Dil red fluorescent dye and intravenously injected with TILs with or without pembrolizumab antibody. At the same time, MOR-antagonist test doses were added to the water. Following an additional 72 hours of further development, the fish were assayed for tumor growth (size of original tumor implant) and metastasis disseminated to the distal caudal venous plexus (CVP) three days after implantation.\nThe testing described above was repeated studying the effects of various doses of axelopran (0, 50 nM, 100 nM, 500 nM, and 1000 nM) alone, pembrolizumab alone, or pembrolizumab in combination with axelopran. The results of this testing are shown in FIG. 7, which depicts a summary of melanoma tumor progression (tumor size×#metastasis) in the presence of increasing axelopran concentrations or the checkpoint inhibitor pembrolizumab. For experiments using pembrolizumab, exogenous tumor-infiltrating lymphocytes (TILs) were also injected. The additional controls included the effect of TILs alone and with axelopran (500 nM) and pembrolizumab and TILs alone and with axelopran (500 nM). *=<0.05, **=<0.005, ***=<0.0005."}, "[2]": {"system": "Mouse colon cancer (MC38) cells", "experiment": "Syngeneic mouse colon cancer model", "assay_type": "in vivo, mice (C57BL6)", "method": "The syngeneic mouse model assay (FIG. 3B) allows a complete system where tumor progression is quantified in the presence of endogenous immune surveillance and an active gut microbiome.\nMouse colon cancer (MC38) cells were amplified in vitro prior to implantation. On the day of injection, cells were harvested, counted including a trypan blue viability dye (cut-off 80%), and resuspended in PBS at the appropriate concentration. The cells were injected subcutaneously in the right flank of Female mice (C57BL6), 5 weeks of age (18-22 gm body weight) at 5.106 cells/mouse in 200 μL PBS within 30 minutes after harvesting. After 15-18 days of tumor growth, mice were randomized into treatment groups at 10 animals/group. Animals were weighed thrice weekly and tumor growth measured using callipers. The tumour volume (TV) was extrapolated to a sphere using the formula shown below: […]\nby calculating the mean radius from the two measurements.\nThe results of these studies are shown in FIG. 12A, 12B, 13 as well as Table 2-3. The tumor growth curves in animals treated with the MOR antagonist, axelopran, mouse anti-PD-1 or a combination of both treatments are shown in FIGS. 12A and 12B. FIG. 12A and FIG. 12B show MC38 colon cancer tumor growth in syngeneic mice treated with Vehicle (Control), axelopran (1 mg/kg, p.o. daily), mouse anti-PD-1 (12.5 mg/kg i.p.,3×-weekly) or axelopran plus anti-PD-1."}, "[3]": {"details": "absence of exogenous opioids, melanoma"}}, "data": [{"smiles": "NC(=O)c1cccc(C2CC3CCC(C2)N3CCN(CC2CCCCC2)C(=O)[C@@H](O)CO)c1", "note": "(stereo partly drawn) [axelopran, 3-[(1R,3r,5S)-8-(2-{(cyclohexylmethyl)[(2S)-2,3-dihydroxypropanoyl]amino}ethyl)-8-azabicyclo[3.2.1]octan-3-yl]benzamide]", "values": [{"measurement": "infiltration of CD3+ lymphocytes, CD244+ natural killer cells and MMD+ macrophages into the tumor tissue", "setting": "[1]", "result": "synergistically enhanced the infiltration"}, {"measurement": "metastasis", "setting": "M-001 melanoma cells; 10 μM axelopran vs vehicle control", "result": "significantly reduced metastasis"}, {"measurement": "Melanoma tumor progression index (tumor size × metastasis), Mean", "setting": "M-001 melanoma cells; Axelopran 100 nM", "result": 5.71}, {"measurement": "Melanoma tumor progression index (tumor size × metastasis), Mean", "setting": "M-001 melanoma cells; Axelopran 500 nM +TILS", "result": 2.73}, {"measurement": "Melanoma tumor progression index (tumor size × metastasis), Mean", "setting": "M-001 melanoma cells; Axelopran 500 nM", "result": 3.62}, {"measurement": "Melanoma tumor progression index (tumor size × metastasis), Mean", "setting": "M-001 melanoma cells; Axelopran 1000 nM", "result": 1.85}, {"measurement": "interaction of axelopran activity with anti-PD-1 treatment", "setting": "M-001 melanoma cells; absence of a microbiome, melanoma", "result": "additive"}, {"measurement": "metastasis", "setting": "M-001 melanoma cells; [3]", "result": "inhibits metastasis"}, {"measurement": "tumor growth", "setting": "M-001 melanoma cells; [3]", "result": "inhibits tumor growth"}, {"measurement": "Tumor Size @ day 13, Mean", "setting": "[2]; axelopran 1 mg/kg p.o. daily, mouse anti-PD-1 12.5 mg/kg i.p. 3×-weekly", "result": "1,479 mm^3"}, {"measurement": "Survival, Median", "setting": "[2]; axelopran 1 mg/kg, anti-PD-1", "result": 13.0, "unit": "days"}, {"measurement": "Growth Rate, Mean", "setting": "[2]; initial 8 days of treatments, axelopran 1 mg/kg p.o. daily, mouse anti-PD-1 12.5 mg/kg i.p.", "result": 84.5, "unit": "mm^3/day"}, {"measurement": "interaction of axelopran activity with anti-PD-1 treatment", "setting": "[2]; presence of a microbiome, colon cancer", "result": "synergistic"}]}]}
